{
  "source": "patent US20110071177A1",
  "about": "“FUNGICIDAL ACTIVE SUBSTANCE COMBINATION” (Bayer CropScience AG, priority 2005, published 2011)",
  "system": "Sphaerotheca fuliginea",
  "assay": "Sphaerotheca test (cucumber) / protective",
  "assay_type": "in vivo, Sphaerotheca fuliginea on cucumber",
  "conditions": "application rate 4 ppm, evaluation 7 days after inoculation",
  "method": "Solvents: 24.5 parts by weight of acetone • 24.5 parts by weight of dimethylacetamide Emulsifier: 1 part by weight of alkylaryl polyglycol ether To produce a suitable preparation of active compound, 1 part by weight of active compound or active compound combination is mixed with the stated amounts of solvents and emulsifier, and the concentrate is diluted with water to the desired concentration, or a commercial formulation of active compound or active compound combination with water is diluted with water to the desired concentration. To test for protective activity, young plants are sprayed with the active compound preparation at the stated application rate. After the spray coating has dried on, the plants are inoculated with an aqueous spore suspension of Sphaerotheca fuliginea. The plants are then placed in a greenhouse at about 23° C. and a relative atmospheric humidity of about 70%. Evaluation is carried out 7 days after inoculation. Here, 0% means an efficacy which corresponds to that of the control, whereas an efficacy of 100% means that no infestation is observed.",
  "data": [
    {"compound": "CO/N=C(/C(=O)OC)c1ccccc1CO/N=C(\\C)c1cccc(C(F)(F)F)c1", "note": "[2-[α-{[(α-methyl-3-trifluoromethylbenzyl)imino]oxy}-o-tolyl]glyoxylic acid methyl ester O-methyloxime]", "values": [
      {"measurement": "% efficacy", "result": 10, "unit": "%"}
    ]}
  ]
}
